# Data taken from patent US12630498B2 (Genzyme Corporation, priority 2019, dated 2026).
# Biological target: T1, human Cystic Fibrosis Transmembrane Conductance Regulator (CFTR) harboring the ΔF508 mutation (Homo sapiens, UniProt P13569, DEL508-508)
# T1 construct: expressed in transfected cells; host or cells: H441 carcinoma line (G418-selected)
# Test: H441 cell ΔF508-CFTR-HRP cell surface assay (Emax and EC50)
# Assay type: cell-based
# Settings: for Emax: NCI-H441, NA = Not active
# Text: Example 315: H441 Cell Emax and EC50 Two cell lines were used, the H441 carcinoma line and the CFHBE41o- (41o-) human bronchial epithelial line. Both cell lines expressed human Cystic Fibrosis Transmembrane Conductance Regulator (CFTR) harboring the ΔF508 mutation and with an in-frame fusion in CFTR extracellular loop 4 of Horse Radish Peroxidase (HRP) under control of the CMV promoter. In the presence of the HRP tag, ΔF508-CFTR transported to the cell surface was detectable upon addition of an HRP substrate (Luminata Forte). Both cell types were cultivated at 37° C. with CO2. […] For both cell types, the medium was changed every other day unless the culture was at low % confluence. Cells were used for the assays at 75% confluence. To a polypropylene (PP) 384-well plate, 15 pls DMSO was added to all wells in columns 1-22 and 24 (low Control). 15 μls of 260 μM VX809 (Lumacaftor), Selleckchem […], was added to column 23 wells (high Control). 15 pls of 10 mM test compound or VX809 (control) were added to wells of row A. Serial dilutions of Row A compound were performed 2×15 pls in rows A through 0 (15-point). A PP, 384-well plate containing the appropriate cell culture medium was prepared for each assay plate with 100 pls per well. For the doxycycline-induced 41o-cells, doxycycline for both the assay plate and the medium dilution plate was added at 0.0005 mg/ml to the medium. Both cell lines were plated for the assay at 30 pls per 384-well at 3.4×10 e^5 cells per ml ( 10K cells/well). H441 cells were plated on opaque, white, Corning plate 3704. 41o-cells were plated on collagen-coated opaque, white, Corning plate 356665. For 41o-cells, doxycycline was added to the medium. Using FX (Beckman) protocol, 10 pls diluted compound or medium was added per well to the Assay Plate as: 2 pls DMSO Dilution plate well was diluted in 100 pls of the Medium Dilution Plate well, mixed, and 10 pls was transferred to the Assay Plate. The final assay dilution series was 24.5, 12.3, 6.1, 3.1, 1.5, 0.8, 0.4, 0.2, 0.1, 0.05, 0.02, 0.01, 0.006, 0.003, 0.001 and 0 μM. The 41o-assay plates were incubated at 37° C. w/CO2, the H441 assay plates were incubated at 27° C. w/CO2, each overnight for two nights. After being brought to room temperature, the assay plate liquid was removed. 30 uls of Luminata Forte (Millipore ELLUF0100) was added per well and incubated at room temperature for 10 min. The plates were then read on a Topcount, protocol LumiMatti (CPS, luminescence). The data was analyzed for % of maximum, maximum VX809 signal, and EC50 using Pearl and SPEED tools.
# T1 sequence (P13569 with tags, fused parts or gaps DEL508-508): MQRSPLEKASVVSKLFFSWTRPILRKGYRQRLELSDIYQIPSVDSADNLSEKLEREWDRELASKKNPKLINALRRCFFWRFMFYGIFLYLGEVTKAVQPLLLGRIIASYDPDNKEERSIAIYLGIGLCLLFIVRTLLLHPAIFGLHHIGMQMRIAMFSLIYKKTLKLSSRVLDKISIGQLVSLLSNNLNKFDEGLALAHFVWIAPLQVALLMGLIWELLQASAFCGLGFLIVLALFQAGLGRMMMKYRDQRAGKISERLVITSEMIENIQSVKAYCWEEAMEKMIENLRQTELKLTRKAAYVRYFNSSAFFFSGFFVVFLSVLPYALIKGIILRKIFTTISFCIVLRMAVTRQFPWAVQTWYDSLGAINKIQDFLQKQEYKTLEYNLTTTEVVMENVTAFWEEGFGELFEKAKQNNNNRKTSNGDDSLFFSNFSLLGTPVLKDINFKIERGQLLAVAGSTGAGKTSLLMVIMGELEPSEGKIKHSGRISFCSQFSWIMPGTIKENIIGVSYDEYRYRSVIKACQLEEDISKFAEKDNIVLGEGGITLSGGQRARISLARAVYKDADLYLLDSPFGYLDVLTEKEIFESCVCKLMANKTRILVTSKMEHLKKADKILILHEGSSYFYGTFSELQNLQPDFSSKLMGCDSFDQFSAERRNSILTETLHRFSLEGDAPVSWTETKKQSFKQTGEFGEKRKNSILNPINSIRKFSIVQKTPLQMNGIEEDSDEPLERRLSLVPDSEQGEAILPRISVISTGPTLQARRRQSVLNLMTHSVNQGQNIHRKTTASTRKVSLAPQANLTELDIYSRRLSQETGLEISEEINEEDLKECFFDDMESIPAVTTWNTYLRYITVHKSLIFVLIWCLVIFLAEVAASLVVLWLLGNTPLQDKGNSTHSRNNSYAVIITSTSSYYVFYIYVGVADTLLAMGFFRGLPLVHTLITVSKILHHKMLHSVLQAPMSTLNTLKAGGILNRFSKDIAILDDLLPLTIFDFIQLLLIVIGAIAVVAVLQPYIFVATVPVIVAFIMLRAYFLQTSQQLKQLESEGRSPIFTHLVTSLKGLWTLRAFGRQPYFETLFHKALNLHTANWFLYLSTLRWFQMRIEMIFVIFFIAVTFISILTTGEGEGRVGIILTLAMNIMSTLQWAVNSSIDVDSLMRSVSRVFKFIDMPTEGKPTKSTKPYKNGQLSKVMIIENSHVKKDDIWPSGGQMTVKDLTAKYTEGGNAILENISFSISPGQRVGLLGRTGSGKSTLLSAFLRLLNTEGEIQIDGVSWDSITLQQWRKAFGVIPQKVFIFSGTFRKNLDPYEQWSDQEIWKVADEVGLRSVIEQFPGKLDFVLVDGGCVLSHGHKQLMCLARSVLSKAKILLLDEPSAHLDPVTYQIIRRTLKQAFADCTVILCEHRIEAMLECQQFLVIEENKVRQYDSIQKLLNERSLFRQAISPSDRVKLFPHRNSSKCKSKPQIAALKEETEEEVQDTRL
SMILES,Emax [%],EC50 [µM]
"O=C(N[C@@H](Cc1ccc(C(F)(F)F)cc1)C(=O)O)c1ccc2cc(F)ccc2c1OCC1CCCCC1 [Example 204, (S)-2-(1-(cyclohexylmethoxy)-6-fluoro-2-naphthamido)-3-(4-(trifluoromethyl)phenyl)propanoic Acid]",6.8,
"Cc1ccc2ccc(C(=O)N[C@H](C(=O)O)C3(C)CC3)c(OCc3ccc(C(F)(F)F)cc3)c2c1 [Example 229, (2S)-2-(1-methylcyclopropyl)-2-[[7-methyl-1-[[4-(trifluoromethyl)phenyl]methoxy]naphthalene-2-carbonyl]amino]acetic Acid]",177,1.8
"CC1([C@H](NC(=O)c2ccc3ccc(C(F)(F)F)cc3c2OCc2ccc(C(F)(F)F)cc2)C(=O)O)CC1 [compound 298, (S)-2-(1-methylcyclopropyl)-2-(7-(trifluoromethyl)-1-((4-(trifluoromethyl)benzyl)oxy)-2-naphthamido)acetic Acid]",153,0.7
"CC1(C(NC(=O)c2ccc3cc(F)ccc3c2OCC2CCC(F)(F)CC2)C(=O)O)CCCCC1 (centres unmarked) [Example 54, 2-(1-((4,4-difluorocyclohexyl)methoxy)-6-fluoro-2-naphthamido)-2-(1-methylcyclohexyl)acetic Acid]",56.1,2.4
"O=C(N[C@@H](Cc1ccccc1)C(=O)O)c1ccc2ccccc2c1OCc1cccc2c1OC(F)(F)O2 [Example 102, (1-((2,2-difluorobenzo[d][1,3]dioxol-4-yl)methoxy)-2-naphthoyl)-L-phenylalanine]",33.7,8
"C[C@@H](OCc1ccccc1)C(NC(=O)c1ccc2ccccc2c1OCc1ccc(C(F)(F)F)cc1)C(=O)O (stereo partly drawn) [Example 144, (3R)-3-(benzyloxy)-2-(1-((4-(trifluoromethyl)benzyl)oxy)-2-naphthamido)butanoic Acid]",140,4.5
"O=C(NC(C(=O)O)C(C(F)(F)F)C(F)(F)F)c1ccc2ccccc2c1OCC1CCCCC1 (centres unmarked) [Example 183, 2-(1-(cyclohexylmethoxy)-2-naphthamido)-4,4,4-trifluoro-3-(trifluoromethyl)butanoic Acid]",63.9,3.2
"CC1([C@H](NC(=O)c2ccc3cc(F)ccc3c2OCc2ccc(OC(F)(F)F)cc2)C(=O)O)CC1 [Example 30, (S)-2-(6-fluoro-1-((4-(trifluoromethoxy)benzyl)oxy)-2-naphthamido)-2-(1-methylcyclopropyl)acetic Acid]",57.5,2
"O=C(N[C@@H](Cc1ccc(C(F)(F)F)cc1)C(=O)O)c1ccc2ccccc2c1OCc1nc2ccccc2s1 [Example 213, (S)-2-(1-(benzo[d]thiazol-2-ylmethoxy)-2-naphthamido)-3-(4-(trifluoromethyl)phenyl)propanoic Acid]",87.2,13.1
"CC(C)(C)[C@H](NC(=O)c1ccc2cc(F)ccc2c1OCC1CCC(F)(F)CC1)C(=O)O [Example 76, (S)-2-(1-((4,4-difluorocyclohexyl)methoxy)-6-fluoro-2-naphthamido)-3,3-dimethylbutanoic Acid]",58.3,7.1
"CC(C)(C)C#CCOc1c(C(=O)N[C@H](C(=O)O)C(C)(C)C)ccc2ccccc12 [Example 267, (2S)-2-[[1-(4,4-dimethylpent-2-ynoxy)naphthalene-2-carbonyl]amino]-3,3-dimethyl-butanoic Acid]",288,3.4
"CC(C)(C)C[C@H](NC(=O)c1ccc2cc(F)ccc2c1OCC1CCC(F)(F)CC1)C(=O)O [Example 109, (S)-2-(1-((4,4-difluorocyclohexyl)methoxy)-6-fluoro-2-naphthamido)-4,4-dimethylpentanoic Acid]",52.7,14.2
"CC(C)(C)C[C@H](NC(=O)c1ccc2cc(F)ccc2c1OCc1ccc(S(F)(F)(F)(F)F)cc1)C(=O)O [Example 112, (S)-2-(6-fluoro-1-((4-(pentafluoro-16-sulfanyl)benzyl)oxy)-2-naphthamido)-4,4-dimethylpentanoic Acid]",58.1,1.9
"CC1(C(NC(=O)c2ccc3cc(F)ccc3c2OCc2ccc(C(F)(F)F)cc2)C(=O)O)CC1 (centres unmarked) [Example 60, 2-(6-fluoro-1-((4-(trifluoromethyl)benzyl)oxy)-2-naphthamido)-2-(1-methylcyclopropyl)acetic Acid]",90.3,1.6

# The remaining lines, values ahead:
Emax [%],EC50 [µM],SMILES
13,,"CC(C)(C)C[C@H](NC(=O)c1ccc2ccccc2c1OCc1ccc(S(C)(=O)=O)cc1)C(=O)O [Example 158, (S)-4,4-dimethyl-2-(1-((4-(methylsulfonyl)benzyl)oxy)-2-naphthamido)pentanoic Acid]"
33.5,1.5,"C=C(C)C1CC=C(COc2c(C(=O)N[C@H](C(=O)O)C(C)(C)C)ccc3ccccc23)CC1 (stereo partly drawn) [Example 49, (2S)-3,3-dimethyl-2-(1-((4-(prop-1-en-2-yl)cyclohex-1-en-1-yl)methoxy)-2-naphthamido)butanoic Acid]"
19.8,22.9,"CCC(C)(C)[C@H](NC(=O)c1ccc2ccccc2c1OCc1ccc(S(C)(=O)=O)cc1)C(=O)O [Example 53, (S)-3,3-dimethyl-2-(1-((4-(methylsulfonyl)benzyl)oxy)-2-naphthamido)pentanoic Acid]"
65.4,20.5,"O=C(N[C@@H](Cc1ccc(C(F)(F)F)cc1)C(=O)O)c1ccc2ccccc2c1OCC1CCCCC1 [Example 200, (S)-2-(1-(cyclohexylmethoxy)-2-naphthamido)-3-(4-(trifluoromethyl)phenyl)propanoic Acid]"
93.2,13.7,"O=C(NC(C(=O)O)C(C(F)(F)F)C(F)(F)F)c1ccc2ccccc2c1OCc1ccc(C(F)(F)F)cc1 (centres unmarked) [Example 181, 4,4,4-trifluoro-3-(trifluoromethyl)-2-(1-((4-(trifluoromethyl)benzyl)oxy)-2-naphthamido)butanoic Acid]"
26.9,3.5,"CC(C)(C)[C@H](NC(=O)c1ccc2ccccc2c1OCc1ccc(Br)cc1)C(=O)O [Example 46, (S)-2-(1-((4-bromobenzyl)oxy)-2-naphthamido)-3,3-dimethylbutanoic Acid]"
53,1.6,"CN(C)c1ccc2c(OCc3ccc(C(F)(F)F)cc3)c(C(=O)N[C@H](C(=O)O)C(C)(C)C)ccc2c1 [compound 85, (S)-2-(6-(dimethylamino)-1-((4-(trifluoromethyl)benzyl)oxy)-2-naphthamido)-3,3-dimethylbutanoic Acid]"
109,1.5,"Cc1ccc2ccc(C(=O)N[C@@H](C(=O)O)C(C)(C)C)c(OCc3ccc(OC(F)(F)F)cc3)c2c1 [Example 289, (R)-3,3-dimethyl-2-(7-methyl-1-((4-(trifluoromethoxy)benzyl)oxy)-2-naphthamido)butanoic Acid]"
9.1,2.5,"CC(C)(C)[C@H](NC(=O)c1ccc2ccccc2c1OCc1ccc2c(c1)OCO2)C(=O)O [Example 79, (S)-2-(1-(benzo[d][1,3]dioxol-5-ylmethoxy)-2-naphthamido)-3,3-dimethylbutanoic Acid]"
6,,"O=C(N[C@@H](Cc1ccccc1)C(=O)O)c1ccc2ccccc2c1OCc1ccc(Cl)cc1 [Example 98, (1-((4-chlorobenzyl)oxy)-2-naphthoyl)-L-phenylalanine]"
12.8,2.1,"CC(C)(C)[C@H](NC(=O)c1ccc2ccccc2c1OCc1ccc(S(C)(=O)=O)cc1)C(=O)O [Example 66, (S)-3,3-dimethyl-2-(1-((4-(methylsulfonyl)benzyl)oxy)-2-naphthamido)butanoic Acid]"
29.2,9.8,"CC(C)(c1ccccc1)[C@H](NC(=O)c1ccc2ccccc2c1OCc1ccc(S(C)(=O)=O)cc1)C(=O)O [Example 23, (S)-3-methyl-2-(1-((4-(methylsulfonyl)benzyl)oxy)-2-naphthamido)-3-phenylbutanoic Acid]"
38.4,,"CC(C)(S[C@@H]1C[C@@H]2CC[C@H]1C2)[C@H](NC(=O)c1ccc2ccccc2c1OCc1ccc(S(C)(=O)=O)cc1)C(=O)O [Example 176, (R)-3-(((1S,2R,4R)-bicyclo[2.2.1]heptan-2-yl)thio)-3-methyl-2-(1-((4-(methylsulfonyl)benzyl)oxy)-2-naphthamido)butanoic Acid]"
